Assay results published in patent publication US4401667A, “Cephalosporins” (Karl Thomae Gesellschaft mit beschrankter Haftung, priority 1980, dated 1983).
Converted amounts (≈) assume the structure as drawn. Like-named read-outs stand apart in the source and are kept apart here.

How the values were obtained:
[1] = system: E. coli R+TEM (β-lactamase carrier); assay: serial dilution test in the microtiter system (MIC); format: cell-based; conditions: Escherichia coli
Experimental: (§1) The tests were performed using the serial dilution test in the microtiter system. […] The nutrient medium consisted of 10 gm of peptone, 8 gm of meat extract oxoid, 3 gm of sodium chloride, and 2 gm of sec. sodium phosphate diluted with distilled water to 100 ml (pH 7.2-7.4). The age of the primary cultures was approximately 20 hours. The standardization of the bacteria suspension was effected using a photometer according to the method of Eppendorf (test tube .phi. 14 mm, filter 546 nm), using for comparison a barium sulfate suspension formed by the addition of 3.0 ml of 1% barium chloride solution to 97 ml of 1% sulfuric acid. After standardization, the test microorganisms were further diluted to a concentration of 1:1500, using a sodium chloride solution.
(§2) 16 mgm of the particular test compound were put into a 10 ml measuring flask, and the flask was subsequently filled to the mark with the solvent. The further dilution series was standardized with distilled water or the appropriate solvent.
(§3) The depressions of the microtiter plates were filled with 0.2 ml of nutrient medium. 0.01 ml of the appropriate test compound solution was then added, followed by inoculation with 0.01 ml (1 drop) of the standardized bacteria suspension. The bacteria were incubated at 37° C. for 18 to 20 hours. Control tests using only the solvent were carried out simultaneously.
(§4) The readings were made macroscopically to determine the minimum inhibitory concentration (the lowest still bacteriostatically effective concentration).
(§5) The following test organisms were used:
(§6) Staphylococcus aureus SG 511, Escherichia coli ATCC 11 775, Pseudomonas aeruginosa hamburgensis and Pseudomonas aeruginosa BC 19, Serratia marcescens ATCC 13 880, Klebsiella pneumoniae ATCC 10 031 and BC 6, Proteus mirabilis BC 17, Proteus rettgeri BC 7, Enterobacter Cloaceae ATCC 13047 and E. coli R+TEM (β-lactamase carrier).

[2] = system: Serratia marcescens ATCC 13 880; assay: as above; format: cell-based; conditions: Serr. marcesc. ATCC 13880, 37° C., 18 to 20 hours
Experimental: as §1, §2, §3, §4, §5, §6

[3] = system: Staphylococcus aureus SG 511; assay: as above; format: cell-based; conditions: SG511, Staph. aureus SG 511, 37° C., 18 to 20 hours
Experimental: as §1, §2, §3, §4, §5, §6

Proteus rettgeri BC 7 = assay: as above; format: cell-based; conditions: Providencia rettgeri, BC7; Prot. rettg.; 37° C., 18 to 20 hours
Experimental: as §1, §2, §3, §4, §5, §6

[4] = system: Klebsiella pneumoniae ATCC 10 031; assay: as above; format: cell-based; conditions: Kl. pneum. ATCC 10031, 37° C., 18 to 20 hours
Experimental: as §1, §2, §3, §4, §5, §6

[5] = system: Enterobacter Cloaceae ATCC 13047; assay: as above; format: cell-based; conditions: Ent. cloacae ATCC 13047; 37° C., 18 to 20 hours
Experimental: as §1, §2, §3, §4, §5, §6

[6] = system: Klebsiella pneumoniae BC 6; assay: as above; format: cell-based
Experimental: as §1, §2, §3, §4, §5, §6

[7] = system: Escherichia coli ATCC 11 775; assay: as above; format: cell-based; conditions: E. coli ATCC 11775, 37° C., 18 to 20 hours
Experimental: as §1, §2, §3, §4, §5, §6

Proteus mirabilis BC 17 = assay: as above; format: cell-based; conditions: BC17, Prot. mirab. BC 17, 37° C., 18 to 20 hours
Experimental: as §1, §2, §3, §4, §5, §6

E. coli ATCC 11 775 = assay: experimental E. coli infection in mice; format: in vivo, mice (female, NMRI strain); conditions: Escherichia coli, ATCC11, sc, 168 h, s.c. administration, once 1 hour after intraperitoneal infection, observation 7 days, read-out: ED50 (dose at which 50% of the animals survive)
Experimental: Test compounds A-D of the invention and cefuroxim were tested in vivo against experimental infections in mice. E.coli ATCC 11 775 was used as the pathogenic bacteria. An intraperitoneal infection was induced with 0.2 ml of a 5% mucin suspension of the bacteria. This corresponds to approximately 1.4×10^6 E. coli bacteria per mouse. […] The treatment was applied once (1 hour after infection). The observation period was 7 days.

[8] = system: Pseudomonas aeruginosa BC 19; assay: serial dilution test in the microtiter system (MIC); format: cell-based
Experimental: as §1, §2, §3, §4, §5, §6

[9] = system: Pseudomonas aeruginosa hamburgensis; assay: as above; format: cell-based
Experimental: as §1, §2, §3, §4, §5, §6

[10] = Pseud. Hbg., 37° C., 18 to 20 hours, read-out: MIC
[11] = BC6, Kl. pneum. BC 6, 37° C., 18 to 20 hours, read-out: MIC
[12] = BC19, Pseud. BC 19, 37° C., 18 to 20 hours, read-out: MIC

Compound	MIC [1] [µg/mL]	MIC [2] [µg/mL]	MIC [3] [µg/mL]	MIC (Proteus rettgeri BC 7) [µg/mL]	MIC [4] [µg/mL]	MIC [5] [µg/mL]	MIC ([6]; BC6) [µg/mL]	MIC [7] [µg/mL]	MIC (Proteus mirabilis BC 17) [µg/mL]	ED50 (E. coli ATCC 11 775) [mg/kg]	MIC ([8]; BC19) [µg/mL]	MIC [9, 10] [µg/mL]	MIC [6, 11] [µg/mL]	MIC [9] [µg/mL]	MIC [8, 12] [µg/mL]
CO/N=C(\C(=O)N[C@@H]1C(=O)N2C(C(=O)O)=C(COC(N)=O)CS[C@H]12)c1ccco1 [Cefuroxim, cefuroxim, reference compound]	4 (≈ 9.43 µM)	8 (≈ 18.9 µM)	1 (≈ 2.36 µM)	2 (≈ 4.71 µM)	2 (≈ 4.71 µM)	32 (≈ 75.4 µM)	4 (≈ 9.43 µM)	8 (≈ 18.9 µM)	0.5 (≈ 1.18 µM)	> 100	–	–	–	–	–
NS(=O)(=O)c1ccc(CNc2ncc(NC(=O)N[C@@H](C(=O)N[C@@H]3C(=O)N4C(C(=O)O)=C(CSc5nnnn5CCO)CS[C@H]34)c3ccc(O)cc3)c(O)n2)s1 [B]	4 (≈ 4.79 µM)	0.25 (≈ 0.299 µM)	1 (≈ 1.2 µM)	0.25 (≈ 0.299 µM)	0.12 (≈ 0.144 µM)	0.25 (≈ 0.299 µM)	–	0.06 (≈ 0.0719 µM)	0.12 (≈ 0.144 µM)	0.4	2 (≈ 2.4 µM)	4 (≈ 4.79 µM)	0.25 (≈ 0.299 µM)	–	–
O=C(Nc1cnc(NCc2cccnc2)nc1O)N[C@@H](C(=O)N[C@@H]1C(=O)N2C(C(=O)O)=C(CSc3nnnn3CCO)CS[C@H]12)c1ccc(O)cc1 [A, Sodium 7β-{D-α-[3-(4-hydroxy-2-(3'-pyridylmethylamino)-5-pyrimidinyl)-ureido]-p-hydroxyphenylacetamido}-3-{[1-(2'-hydroxyethyl)-tetrazol-5-yl]-thiomethyl}-ceph-3-em-4-carboxylate]	8	0.25	1	0.5	0.25	0.5	–	0.12	0.12	0.9	4	–	0.5	8	–
CS(=O)(=O)CCn1nnnc1SCC1=C(C(=O)O)N2C(=O)[C@@H](NC(=O)[C@H](NC(=O)Nc3cnc(NCc4ccco4)nc3O)c3ccc(O)cc3)[C@H]2SC1 [D, Sodium 7β-{D-α-[3-(2-(2'-furylmethylamino)-4-hydroxy-5-pyrimidinyl)-ureido]-p-hydroxyphenylacetamido}-3-{[1-(2'-methylsulfonylethyl)tetrazol-5-yl]-thiomethyl}-ceph-3-em-4-carboxylate]	8	0.5	0.5	1	0.25	0.5	–	0.25	0.25	1 to 2	–	8	0.5	–	8
NC(=O)CCn1nnnc1SCC1=C(C(=O)O)N2C(=O)[C@@H](NC(=O)[C@H](NC(=O)Nc3cnc(NCc4ccc(S(N)(=O)=O)s4)nc3O)c3ccc(O)cc3)[C@H]2SC1 [C, Sodium 7β-{D-α-[3-(2-(5'-aminosulfonyl-2'-thienylmethylamino)-4-hydroxy-5-pyrimidinyl)-ureido]-p-hydroxyphenylacetamido}-3-{[1-(2'-aminocarbonylethyl)-tetrazol-5-yl]-thiomethyl}ceph-3-em-4-carboxylate]	4	0.5	1	0.5	0.25	0.25	–	0.12	0.25	0.7	–	4	0.25	–	4
